# Legend:
# Type in all cases: functional
# A549 = assay: Growth inhibition of human A549 cells after 48 hrs by […] growth inhibition assay; settings: A549, 48 h
# SNB-19 = assay: Growth inhibition of human SNB19 cells assessed as cell growth at 10 uM after 48 hrs by SRB assay; settings: SNB-19, 48 h, read-out: Activity
# Malme-3M = assay: Growth inhibition of human MALME-3M cells assessed as cell growth at 1 uM after 48 hrs by SRB assay; settings: read-out: Activity
# IGROV-1 = assay: Growth inhibition of human IGROV1 cells assessed as cell growth at 0.1 uM after 48 hrs by SRB assay; settings: IGROV-1, 48 h, read-out: Activity
# UO-31 = assay: Growth inhibition of human UO31 cells after 48 hrs by […] growth inhibition assay; settings: UO-31, 48 h
# SK-MEL-2 = assay: Growth inhibition of human SK-MEL-2 cells after 48 hrs by […] growth inhibition assay; settings: SK-MEL-2, 48 h
# TK-10 = assay: Growth inhibition of human TK10 cells after 48 hrs by […] growth inhibition assay; settings: TK-10, 48 h
# CCRF-CEM = assay: Growth inhibition of human CCRF-CEM cells after 48 hrs by […] growth inhibition assay
# DU-145 [1] = assay: Growth inhibition of human DU145 cells assessed as cell growth at 10 uM after 48 hrs by SRB assay; settings: DU-145, 48 h, read-out: Activity
# NCI-H23 [2] = assay: Growth inhibition of human NCI-H23 cells assessed as cell growth at 0.1 uM after 48 hrs by SRB assay; settings: NCI-H23, 48 h, read-out: Activity
# HT-29 = assay: Growth inhibition of human HT-29 cells assessed as cell growth at 0.1 uM after 48 hrs by SRB assay; settings: HT-29, 48 h, read-out: Activity
# MDA-MB-435 = assay: Growth inhibition of human MDA-MB-435 cells assessed as cell growth at 1 uM after 48 hrs by SRB assay; settings: MDA-MB-435, 48 h, read-out: Activity
# SN12C = assay: Growth inhibition of human SN12C cells assessed as cell growth at 0.1 uM after 48 hrs by SRB assay; settings: read-out: Activity
# KM12 = assay: Growth inhibition of human KM12 cells assessed as cell growth at 10 uM after 48 hrs by SRB assay; settings: KM12, 48 h, read-out: Activity
# HOP-92 = assay: Growth inhibition of human HOP92 cells after 48 hrs by […] growth inhibition assay; settings: HOP-92, 48 h
# SF-295 [3] = assay: Growth inhibition of human SF295 cells assessed as cell growth at 1 uM after 48 hrs by SRB assay; settings: SF-295, 48 h, read-out: Activity
# OVCAR-3 [4] = assay: Growth inhibition of human OVCAR3 cells assessed as cell growth at 1 mM after 48 hrs by SRB assay; settings: OVCAR-3, 48 h, read-out: Activity
# SK-MEL-5 = assay: Growth inhibition of human SK-MEL-5 cells assessed as cell growth at 1 mM after 48 hrs by SRB assay; settings: SK-MEL-5, 48 h, read-out: Activity
# T47D = assay: Growth inhibition of human T47D cells assessed as cell growth at 1 mM after 48 hrs by SRB assay; settings: read-out: Activity
# RXF 393 = assay: Growth inhibition of human RXF393 cells assessed as cell growth at 0.1 uM after 48 hrs by SRB assay; settings: RXF 393, 48 h, read-out: Activity
# OVCAR-8 = assay: Growth inhibition of human OVCAR8 cells assessed as cell growth at 10 uM after 48 hrs by SRB assay; settings: OVCAR-8, 48 h, read-out: Activity
# ACHN = assay: Growth inhibition of human ACHN cells assessed as cell growth at 0.1 uM after 48 hrs by SRB assay; settings: read-out: Activity
# OVCAR-4 = assay: Growth inhibition of human OVCAR4 cells assessed as cell growth at 1 uM after 48 hrs by SRB assay; settings: OVCAR-4, 48 h, read-out: Activity
# SF-295 [5] = assay: Growth inhibition of human SF295 cells assessed as cell growth at 1 mM after 48 hrs by SRB assay; settings: SF-295, 48 h, read-out: Activity
# OVCAR-3 [6] = assay: Growth inhibition of human OVCAR3 cells assessed as cell growth at 1 uM after 48 hrs by SRB assay; settings: OVCAR-3, 48 h, read-out: Activity
# NCI-H226 = assay: Growth inhibition of human NCI-H226 cells assessed as cell growth at 1 uM after 48 hrs by SRB assay; settings: NCI-H226, 48 h, read-out: Activity
# HCT-15 = assay: Growth inhibition of human HCT15 cells assessed as cell growth at 0.1 uM after 48 hrs by SRB assay; settings: HCT-15, 48 h, read-out: Activity
# BT-549 = assay: Growth inhibition of human BT549 cells assessed as cell growth at 0.1 uM after 48 hrs by SRB assay; settings: BT-549, 48 h, read-out: Activity
# DU-145 [7] = assay: Growth inhibition of human DU145 cells after 48 hrs by […] growth inhibition assay; settings: DU-145, 48 h
# LOX IMVI = assay: Growth inhibition of human LOXIMVI cells assessed as cell growth at 100 uM after 48 hrs by SRB assay; settings: read-out: Activity
# NCI-H23 [8] = assay: Growth inhibition of human NCI-H23 cells assessed as cell growth at 1 uM after 48 hrs by SRB assay; settings: NCI-H23, 48 h, read-out: Activity
# SK-MEL-28 = assay: Growth inhibition of human SK-MEL-28 cells assessed as cell growth at 10 uM after 48 hrs by SRB assay; settings: SK-MEL-28, 48 h, read-out: Activity
# [9] = read-out: LC50 (the source's name)
# [10] = read-out: pLC50 (the source's name) (converted)
smiles,measurement,setting,value
CNC(=O)NC[C@H]1O[C@@H](n2cnc3c(NC(=O)Nc4ccccc4)ncnc32)[C@H](O[Si](C)(C)C(C)(C)C)[C@@H]1O[Si](C)(C)C(C)(C)C,GI50,A549; read-out: GI50,2.9 µM
same,CC50,A549; [9],> 100 µM
same,TGI,A549; read-out: TGI,12.8 µM
same,GI50,A549; read-out: pGI50 (converted),2.88 µM
same,CC50,A549; [10],> 100 µM
same,TGI,A549; read-out: pTGI (converted),12.9 µM
same,growth at 10 µM,SNB-19,91%
same,growth at 1 µM,Malme-3M,98%
same,growth at 0.1 µM,IGROV-1,100%
same,GI50,UO-31; read-out: GI50,2.5 µM
same,CC50,UO-31; [9],> 100 µM
same,TGI,UO-31; read-out: TGI,9.56 µM
same,GI50,UO-31; read-out: pGI50 (converted),2.51 µM
same,CC50,UO-31; [10],> 100 µM
same,TGI,UO-31; read-out: pTGI (converted),9.55 µM
same,GI50,SK-MEL-2; read-out: GI50,2.45 µM
same,CC50,SK-MEL-2; [9],> 100 µM
same,TGI,SK-MEL-2; read-out: TGI,55.4 µM
same,GI50,SK-MEL-2; read-out: pGI50 (converted),2.45 µM
same,CC50,SK-MEL-2; [10],28.2 µM
same,TGI,SK-MEL-2; read-out: pTGI (converted),5.5 µM
same,GI50,TK-10; read-out: GI50,4.29 µM
same,CC50,TK-10; [9],> 100 µM
same,TGI,TK-10; read-out: TGI,72.6 µM
same,GI50,TK-10; read-out: pGI50 (converted),4.27 µM
same,CC50,TK-10; [10],> 100 µM
same,TGI,TK-10; read-out: pTGI (converted),72.4 µM
same,GI50,CCRF-CEM; read-out: GI50,3.59 µM
same,"LC50 (lethal concentration, 50% net cell kill)",CCRF-CEM; read-out: LC50,> 100 µM
same,TGI,CCRF-CEM; read-out: TGI,> 100 µM
same,GI50,CCRF-CEM; read-out: pGI50 (converted),3.63 µM
same,"LC50 (lethal concentration, 50% net cell kill)",CCRF-CEM; read-out: pLC50 (converted),> 100 µM
same,TGI,CCRF-CEM; read-out: pTGI (converted),> 100 µM
same,growth at 10 µM,DU-145 [1],109%
same,growth at 0.1 µM,NCI-H23 [2],100%
same,growth at 0.1 µM,HT-29,102%
same,growth at 1 µM,MDA-MB-435,102%
same,growth at 0.1 µM,SN12C,100%
same,growth at 10 µM,KM12,107%
same,GI50,HOP-92; read-out: GI50,1.56 µM
same,CC50,HOP-92; [9],97.6 µM
same,TGI,HOP-92; read-out: TGI,5.16 µM
same,GI50,HOP-92; read-out: pGI50 (converted),1.55 µM
same,CC50,HOP-92; [10],97.7 µM
same,TGI,HOP-92; read-out: pTGI (converted),5.13 µM
same,growth at 1 µM,SF-295 [3],107%
same,growth at 1000 µM,OVCAR-3 [4],-50%
same,growth at 1000 µM,SK-MEL-5,-99%
same,growth at 1000 µM,T47D,-32%
same,growth at 0.1 µM,RXF 393,98%
same,growth at 10 µM,OVCAR-8,106%
same,growth at 0.1 µM,ACHN,107%
same,growth at 1 µM,OVCAR-4,108%
same,growth at 1000 µM,SF-295 [5],-7%
same,growth at 1 µM,OVCAR-3 [6],113%
same,growth at 1 µM,NCI-H226,106%
same,growth at 0.1 µM,HCT-15,105%
same,growth at 0.1 µM,BT-549,113%
same,GI50,DU-145 [7]; read-out: GI50,2.58 µM
same,CC50,DU-145 [7]; [9],18.7 µM
same,TGI,DU-145 [7]; read-out: TGI,5.71 µM
same,GI50,DU-145 [7]; read-out: pGI50 (converted),2.57 µM
same,CC50,DU-145 [7]; [10],18.6 µM
same,TGI,DU-145 [7]; read-out: pTGI (converted),5.75 µM
same,growth at 100 µM,LOX IMVI,-89%
same,growth at 1 µM,NCI-H23 [8],106%
CNC(=O)OC[C@H]1O[C@@H](n2cnc3c(NC(=O)Nc4ccccc4)ncnc32)[C@H](O[Si](C)(C)C(C)(C)C)[C@@H]1O[Si](C)(C)C(C)(C)C,growth at 10 µM,SNB-19,114%
same,growth at 10 µM,DU-145 [1],106%
same,growth at 10 µM,KM12,110%
same,growth at 10 µM,OVCAR-8,88.8%
same,growth at 10 µM,SK-MEL-28,102%

# Source: ChEMBL document CHEMBL1681651, “A broad spectrum anticancer nucleoside with selective toxicity against human colon cells in vitro” (2011)
